US6696495B2, “Treatment of disorders secondary to organic impairments” (Snowden Pharmaceuticals, LLC, priority 1998, dated 2004)

Assays:
[1] = system: Institutionalization Syndrome; assay: Case history 25; assay type: in vivo, human
Description: 25. The Symptoms Due to Institutionalization Syndrome, Also Known As Concentration Camp Syndrome or Survivors Syndrome.
A person was diagnosed with Institutionalization Syndrome and had been in and out of hospitals for 25 years.

[2] = system: Asocial Behavior, Violence, and Hyposexuality; assay: Case history 10, Sibutramine Patient No. 54; assay type: in vivo, human
[3] = system: Reflex Sympathetic Dystrophy Syndrome (RSDS); assay: Case history 22; assay type: in vivo, human; conditions: sibutramine 10 mg. b.i.d. Person
Description: 22. Reflex Sympathetic Dystrophy Syndrome (RSDS)
A person injured their left ankle 14 months prior to their initial visit. The left lower leg then became red and then black, hot, swollen, and extremely painful. RSD was diagnosed and multiple treatments were unsuccessful. After nine months the skin gradually sloughed and the limb turned cold but remained painful, especially to touch. The patient also noted profuse swelling of the affected left leg, a tremor of the left hand, and many visual-spatial problems characteristic of right cerebral dysfunction. They were declared totally disabled. […] This enabled them to discontinue their other medication.

[4] = system: Tourette's Disease Tics, Violence, and ADHD; assay: Case history 8, Sibutramine Patient No. 47; assay type: in vivo, human
[5] = system: Intracerebral Porencephalic Cyst With Oscillopsia; assay: Case history 14, Sibutramine Patient No. 111; assay type: in vivo, human
Description: 14. Intracerebral Porencephalic Cyst With Oscillopsia (Problem No. 5) Sibutramine Patient No. 111
A person suffered a severe head injury in 1976 with a fractured skull, coma, and an intracerebral (porencephalic) cyst caused by the traumatic blockage of their cerebral spinal fluid in their brain. This cyst was repaired surgically with a brain ventricular—jugular vein shunt. This had permitted them to work continuously with concomitant treatment with carbamazepine, valproic acid, and dextroamphetamine until early 1998 when they began to suffer severe attacks of bizarrely altered vision, dizziness, ataxia, and confusion. The attacks progressed to several times per week, lasting 4-24 hours in duration. […] There is no known treatment for these attacks and they were therefore unable to drive or work safely. They were placed on total disability. They were started on 10 mg of sibutramine as needed for these oscillopsia attacks. […] After 2 months at the 5 mg tid dosage, the patient again noted a recurrence of oscillopsia on a 2-3 times weekly basis.

Huntington's Disease = assay: Case history 12, Sibutramine Patient No. 113; assay type: in vivo, human
[6] = system: frontal lobe executive function, ADHD, and hyposexuality
[7] = system: Severe ADHD Refractory to All Other Medications With Executive (Frontal Lobe) Problems
Description: A person was seen first for a life-long history of severe hyperactivity, distractibility, disorganization, poor memory of studied material, very poor concentration, and school failure despite a high IQ. There was no known history of head injury, other neurological disease, nor metabolic disease.

[8] = system: Tourette's Tics, Asocial Behavior, and Relief of Hyposexuality; conditions: sibutramine 5 mg three times a day
Sexual Function and ADD = assay: Case history 4, Sibutramine Patient No. 109; assay type: in vivo, human
[9] = system: Sexual Gender Choice Change; assay: Case history 7, Sibutramine Patient No. 99; assay type: in vivo, human; conditions: sibutramine 10 mg every morning; person
[10] = system: Sexual Obsessive-Compulsive Behavior, ADD and Executive Function; assay: Case history 6, Sibutramine Patient No. 77; assay type: in vivo, human
[11] = system: Fibromyalgia—Chronic Fatigue Syndrome
[12] = system: Chronic Psychosis and Tardive Dyskinesia; assay: Case history 28; assay type: in vivo, human
Method: 28. Chronic Psychosis and Tardive Dyskinesia
They were committed to a Psychiatric Hospital multiple times and was treated with multiple neuroleptic medication from which they have developed Tardive Dyskinesia. They were administered 15 mg sibutramine a day which had immediate effects, in less then one hour the improvement was noticed by them and others. […] They continue to take sibutramine along with 15 mg of Zyprexa daily.

Retinitis Pigmentosa = assay: Case history 13; assay type: in vivo, human
Description: person one presented with a 40 year history of gradual loss of vision due to RP. For the past 10 years they had been almost completely blind except for well-lit large shapes visible to their right eye. They have been prone to falls with head injury and had developed a focal seizure disorder which had been also associated with “visions”, stammering, and confusion. Multiple treatments had been tried unsuccessfully by other physicians, and they were then referred to me.
One problem was that the effects faded after 4-6 hours and required multiple dosing. […] sleep was aided as well because of the relief from the frightening visual apparitions. The relief from stammering was also unexpected.

Cerebral Palsy = assay: Case history 26; assay type: in vivo, human; conditions: sibutramine 15 mg once a day; person two
Description: 26. The Symptoms Due to Cerebral Palsy
person two had suffered from Cerebral Palsy since birth. Their whole life they had little control of their right arm and hand, and they could not keep their arm straight and down by their side except for short periods of time and using the utmost concentration to do so. Most often they kept their arm in an upright position with their hand near or above their shoulder and their elbow bent. They had no practical use from the arm other than to hold something against their chest. Their hand was also rigid and kept in a loose fist configuration. Fine motor movements of the fingers were impossible for them. […] They had gained control of the right arm and their hand. They are able to hold their hand down by their side for longer periods of time and less concentration required to do so. For the first time in their life they were able to make controlled movements and raise their arm and hand above their head.

[13] = sibutramine 15 mg three times a day

CC(C)CC(N(C)C)C1(c2ccc(Cl)cc2)CCC1.Cl (stereo not shown) [sibutramine, N,N-dimethyl-1-[1-(4-chlorophenyl)cyclobutyl]-3-methylbutylamine hydrochloride]
course since treatment began ([1]; four months): continued improvement of their symptoms | symptoms of Institutionalization Syndrome ([1]; sibutramine 15 mg once a day): relieved their symptoms within a few minutes | speech, compulsive acts, social activity, sexual interest ([2]; sibutramine 5 mg tid): a decrease in repetitive speech, hissing, and compulsive acts, an increase in social activity and sexual interest, and increased speech generally | violence / manageability ([2]; sibutramine 10 mg daily, person): again became calm and manageable | cognition and pain [3]: rapidly became cognitive and had pain relief | tics, aggressive outbursts, concentration ([4]; human, in vivo): rapidly relieved their tics, their aggressive outbursts, and helped their concentration | wear-off of effects ([4]; sibutramine 10 mg every morning): wore off quickly after noon with a rapid return of all symptoms | tics, violence, concentration problems ([4]; sibutramine 10 mg three times daily): loss of verbal and motor tics, violence, and concentration problems | oscillopsia attacks ([5]; 10 mg of sibutramine as needed, person): appeared to help | recurrence of oscillopsia ([5]; after 2 months at 5 mg tid): 2-3 times weekly | oscillopsia attacks in the next four weeks ([5]; sibutramine 5 mg three times daily): only one such attack | oscillopsia attacks ([5]; sibutramine 10 mg tid): absence of attacks | ataxic gait with continued treatment (Huntington's Disease; gradually, continued sibutramine): improvements in their ataxic gait | time to relief after the first capsule (Huntington's Disease; sibutramine 5 mg): ≤ 20 min | cognitive, emotional, behavioral problems and ataxic gait (Huntington's Disease; sibutramine 5 mg three times a day, first capsule, person): complete relief of the cognitive, emotional, and behavioral problems but not with the ataxic gait | sexual drive after radical prostatectomy ([6]; sibutramine): this problem of sexual drive was repaired | efficacy after dose decrease ([6]; sibutramine 5 mg bid, pemoline and methylphenidate discontinued): without a loss of efficacy | side effects ([6]; sibutramine 10 mg. bid): dry mouth and some insomnia | concentration and ability to plan ([6]; sibutramine 10 mg. bid p.o. Person): immediate repair of concentration, and particularly their ability to plan and carry out these plans effectively | maximum duration of a single dose effect ([7]; rapid catabolism): 4 to 5 h | ability to plan and execute (executive function) [7, 13]: marked improvement in their ability to form appropriate, organized plans and execute them promptly without procrastination or distraction | complaints [7, 13]: being “too calm” with a loss of the exciting high-risk behavior of the past | calm, concentration, retention of information ([7]; sibutramine 15 mg three times a day, person): the first medication to calm them and permit careful, quiet concentration and retention of information | ADHD [8]: his ADHD improved | communication and social skills [8]: their communication and social skills improved | motor and vocal tics, obsessive compulsive component ([8]; child): the motor and vocal tics associated with Tourette's Disease were decreased as well as the obsessive compulsive component | concentration and fatigue problems (Sexual Function and ADD; sibutramine 5 mg three times daily with continuing valproic acid): no longer had the concentration and fatigue problems | sexual interest and ability (Sexual Function and ADD; sibutramine 5 mg three times daily, person): immediately noted a new-found interest and ability to engage in sex | sexual interest [9]: an increased interest in sex generally, but for the first time this interest included females as well as males | concentration, organization, sexual obsessive-compulsive problems ([10]; sibutramine 10 mg every morning, then 5 mg three times a day by mouth, person): could concentrate, organize, and no longer had the sexual obsessive-compulsive problems | duration of effects of each dose ([10]; sibutramine by mouth): about five | sleep ([11]; first night after sibutramine): difficulty in getting to sleep that first night | alertness and concentration ([11]; sibutramine 5 mg tid p.o.): became alert and able to concentrate | fatigue and energy ([11]; sibutramine 5 mg tid p.o.): their fatigue diminished and their energy increased substantially | pain points ([11]; sibutramine 5 mg tid p.o.): their pain points were still tender but that the burning sensation at these points had abated within 4 days | time to response after the first 5 mg capsule ([11]; sibutramine 5 mg tid p.o. Person): ≤ 2 h | emotion and paranoia ([12]; 15 mg sibutramine a day, with Zyprexa): emotional for the first time and diminishing their paranoia greatly | time to noticed improvement ([12]; 15 mg sibutramine a day, person): one hour | Tardive Dyskinesia ([12]; after the first week): his Tardive Dyskinesia improved | time after which effects faded (Retinitis Pigmentosa; sibutramine 5 mgs.): 4 to 6 h | visual apparitions (“visions”) (Retinitis Pigmentosa; sibutramine 5 mgs. t.i.d.): lost the “visions” which had upset them so | organization, alertness, stammering, vision (Retinitis Pigmentosa; sibutramine 5 mgs. t.i.d. Person one): better organization and alertness, decreased stammering, but also better vision by visual testing | symptoms due to Cerebral Palsy, control of right arm and hand (Cerebral Palsy): their symptoms due to Cerebral Palsy were relieved
